Earlier results on 2 molecules are cited in PMC5224880, “Discovery and Molecular Basis of a Diverse Set of Polycomb Repressive Complex 2 Inhibitors Recognition by EED” (PLoS ONE, 2017).

Entries after “also recorded” stand apart in the source; their conditions may differ.

Data set [1] has as its system tumor growth in the xenograft mouse model. More on the design: method as in PMID 28135235. As to conditions: cited from earlier work.
For a further data set, the system named is PRC2. On the set-up: method as in PMID 28135235. As to conditions: recombinant NCP as substrate; read-out: half-maximum stimulation (Kact) of PRC2 activity; cited from earlier work.

On to `CS(=O)(=O)c1ccc(-c2cnc(NCc3ccco3)n3cnnc23)cc1` [EED226], for which the antitumor activity result in data set [1] is on record as “strong antitumor activity; also recorded: completely regressed tumor growth”. With “H3K27me3 stimulatory peptide: activation peptide H3K27me3 (21–44) used to stimulate PRC2 activity for the nucleosome substrate”, the EC50 in the data set on PRC2 is 1000 nM.
